Measurements: US11026940B2, “Compositions for the mobilization, homing, expansion and differentiation of stem cells and methods of using the same” (Ampio Pharmaceuticals, Inc., priority 2013, dated 2021)
Several values for one entry are separate records, joined by “and”; a condition that tells them apart may be missing. Identical values can stand only once.

Experiments:
TIMP1 = experiment: Stem cell chondrogenesis, real time PCR gene expression: TIMP1; type: cell-based, human; settings: Day 22; for Mean ΔCp / ΔCp: TIMP1 vs Actin
Protocol: (§1) • Stem Cells: Bone marrow derived human mesenchymal stem cells: Passage 5 Bone marrow derived human mesenchymal stem cells (HUXMA-01001, Cyagen Biosciences, Sunnyvale Calif.) • Mesenchymal Stem Cell Chondrogenic Differentiation medium (GUXMX-90041, Cyagen Biosciences, Sunnyvale Calif.) • TheraPEAK MSCGM chemically defined Stem cell medium (190632 Lonza) • 1 mM Dexamethasone acetate and mifepristone in absolute ethanol (Sigma) • Saline or 0.9% Sodium chloride for injection ZR Flush (Excelsior Medical, Neptune N.J.) • Sterile filtered 0.6 mM sodium caprylate in saline (sigma) • Sterile filtered 3 mM NAT in saline (sigma); To prepare, heat at 60° C. for 30 minutes then sonicate for 5 minutes. • Sterile filtered 10 mM DADKP in saline • 0.2 μM syringe filters • Hepes buffered saline, Trypsin/EDTA, Trypsin neutralizing solution (Lonza reagent pack) • 182 cm2 tissue culture flasks • pipettes and sterile tips • Tissue culture hood, humidified CO2 incubator, water or bead bath • 24 well tissue culture plates • Qiagen RNeasy plus spin columns (Qiagen 74134) • Qiagen RT2 qPCR primer pairs for Collagen 2A1, MMP13, TIMP1, Aggrecan, GAPDH, and Actin B • Roche Sybr green I master mix and Invitrogen Superscript VILO master mix. • Roche 480 lightcycler
(§2) The following stock drug treatment solutions were prepared in saline for injection and warmed to 37° C. in bath: • 4 μM dexamethasone • 4 μM mifepristone • 3 mM NAT • 0.6 mM caprylate • 80 μM DADKP • Mix of 3 mM NAT, 0.6 mM caprylate, 80 μM DADKP (“Ampion” mix)
(§3) Cyagen Chondrogenic Differentiation medium was prepared by manufacturer protocols but excluding dexamethasone and TGF beta 3 supplements, and warmed to 37° C. in bath.
(§4) The treatment protocol included expanding 5 HUXMA stem cells in 182 cm^2 flasks containing 40 mls TheraPEAK™ MSCGM to 80-90% confluence. Cells were trypsinized from the flasks and a 1.0×10^7 cell suspension of HUXMA stem cells was warmed in Cyagen Chondrogenic Differentiation medium. 20 μl of warmed cell suspension was spotted in the middle of each well of a 24-well tissue culture plate (200,000 cells per spot), and incubated at 37° C. and 5% CO2 for one hour.
(§5) The plates were removed from the incubator and an additional 720 μl chondrogenic medium was added to each well. 250 μl saline, or drug solutions were added to the appropriate wells in triplicate (bringing the final drug dilution to one-quarter of the stock drug treatment solution concentrations). 10 μl of TGF beta 3 solution (supplied by Cyagen) was added to each well, and the plates were returned to the incubator.
(§6) RNA isolation and analysis was conducted for all plates as follows at days 7, 14, and 22 post treatment (with the described medium exchanges). […] Qiagen RNeasy plus lysis buffer (with 2mercaptoethanol) was added to each well and gently shaken for 10 minutes. The lysed cell suspensions from each well were transferred to Qiashredder columns and spun at 14,000 rpm for 2 minutes. RNA isolation proceeded by RNeasy™ plus manufacturer's protocol. RNA was eluted from the Qiagen columns using 25 μl RNase free water.
(§7) cDNA synthesis and real time PCR was conducted as follows. First strand synthesis of cDNA from all samples was performed in 20 μl total volume using 10 μl isolated RNA. All cDNA reactions were then diluted with 30 μl nuclease free water. Real time PCR was then performed using 5 μl diluted cDNA, Roche Syber green master mix, and Qiagen RT^2 gPCR™ primer pairs in 20 μl total reaction volume. Relative gene expression was determined by delta deta Ct method.

SOX9 = experiment: Stem cell chondrogenesis, real time PCR gene expression: SOX9; type: cell-based, human; settings: Day 14
Protocol: The treatment protocol included expanding 5 HUXMA stem cells in 182 cm^2 flasks containing 40 […] to 80-90% confluence. Cells were trypsinized from the flasks and a 1.0×10^7 cell suspension of HUXMA stem cells was warmed in Cyagen Chondrogenic Differentiation medium. 20 μl of warmed cell suspension was spotted in the middle of each well of a 24-well tissue culture plate (200,000 cells per spot), and incubated at 37° C. and 5% CO2 for one hour. […] Medium exchanges were performed every 3-4 days by aspirating the medium from the wells and replacing with fresh chondrogenic medium, diluted stocks, and TGF beta 3, as described above. […] Medium from the wells was removed and saved for further protein analysis. Qiagen RNeasy plus lysis buffer (with 2mercaptoethanol) was added to each well and gently shaken for 10 minutes. The lysed cell suspensions from each well were transferred to Qiashredder columns and spun at 14,000 rpm for 2 minutes. RNA isolation proceeded by RNeasyTM plus manufacturer's protocol. RNA was eluted from the Qiagen columns using 25 μl RNase free water. cDNA synthesis and real time PCR was conducted as follows. First strand synthesis of cDNA from all samples was performed in 20 μl total volume using 10 μl isolated RNA. All cDNA reactions were then diluted with 30 μl nuclease free water. Real time PCR was then performed using 5 μl diluted cDNA, Roche Syber green master mix, and Qiagen RT^2 gPCRTM primer pairs in 20 μl total reaction volume.

[1] = system: Bone marrow derived human mesenchymal stem cells; experiment: Visual observation of cell aggregates in chondrogenic culture; type: cell-based; settings: day seven
Aggrecan = experiment: Stem cell chondrogenesis, real time PCR gene expression: Aggrecan; type: cell-based, human; settings: for Mean ΔCp / ΔCp: Aggrecan vs Actin; for Mean ΔCp / ΔCp / Cp Agg / Mean regulation: Day 22; for Cp Agg / Mean regulation: Aggrecan; for Mean regulation: vs saline
Protocol: as §1, §2, §3, §4, §5, §6, §7

Collagen 2A1 = experiment: Stem cell chondrogenesis, real time PCR gene expression: Collagen 2A1; type: cell-based, human; settings: for Cp Coll / Mean regulation: Collagen 2A1; for Cp Coll / Mean regulation / Mean ΔCp: Day 22; for Mean regulation: vs saline; for Mean ΔCp: Collagen 2A1 vs GAPDH; for regulation, Collagen 2A1 / Mean regulation, Collagen 2A1: fold regulation vs saline; for regulation, Collagen 2A1 / ΔCp, Collagen 2A1 / 2^-ΔΔCp vs saline, Collagen 2A1 / ΔΔCp vs saline, Collagen 2A1: single replicate well; for Mean regulation, Collagen 2A1 / Mean ΔCp, Collagen 2A1: triplicate wells; for ΔCp, Collagen 2A1: human bone marrow MSC, chondrogenic medium + TGF beta 3; for ΔCp, Collagen 2A1 / 2^-ΔΔCp vs saline, Collagen 2A1 / ΔΔCp vs saline, Collagen 2A1 / Mean ΔCp, Collagen 2A1: vs Actin
MMP13 = experiment: Stem cell chondrogenesis, real time PCR gene expression: MMP13; type: cell-based, human; settings: for Mean regulation: vs saline; for Mean ΔCp / ΔCp: MMP13 vs GAPDH
Protocol: as §1, §2, §3, §4, §5, §6, §7

[2] = vs Actin, single replicate well
[3] = Day 7, vs Actin, single replicate well

## C[C@@H]1NC(=O)[C@H](CC(=O)O)NC1=O [DADKP, aspartyl-alanyl diketopiperazine]
TIMP1; TIMP1, Table 12
  Cp TIMP1: 18.64 and 19.9 and 19.36
TIMP1; TIMP1, Table 16
  2-^ΔΔCp vs saline: 1.7013 and 1.5122 and 1.7613
  Cp TIMP1: 18.64 and 19.9 and 19.36
TIMP1; TIMP1, vs saline, Table 12
  Mean regulation: 1.66
  regulation: 1.70 and 1.51 and 1.76
TIMP1; TIMP1, vs saline, Table 16
  regulation: 1.70 and 1.51 and 1.76
TIMP1; Table 12
  Mean ΔCp: 3.04
  ΔCp: 3 and 3.17 and 2.95
TIMP1; Table 16
  Mean ΔCp: 3.04
  ΔCp: 3 and 3.17 and 2.95
SOX9; fold regulation vs saline, single replicate well
  regulation, SOX9: −1.59 and 1.07 and 1.10
SOX9; fold regulation vs saline, triplicate wells
  Mean regulation, SOX9: 0.19
SOX9; human bone marrow MSC, chondrogenic medium + TGF beta 3, vs Actin, single replicate well
  ΔCp, SOX9: 7.85 and 7.08 and 7.04
SOX9; [2]
  2^-ΔΔCp vs saline, SOX9: 0.6285 and 1.0718 and 1.1019
  ΔΔCp vs saline, SOX9: 0.67 and −0.1 and −0.14
SOX9; vs Actin, triplicate wells
  Mean ΔCp, SOX9: 7.323
[1]
  form of the culture (discs or pellets): pulled into loose pellets
Aggrecan; Table 12
  Mean ΔCp: 7.28
  ΔCp: 9.06 and 6.83 and 5.95
  Cp Agg: 24.7 and 23.56 and 22.36
  Mean regulation: 10.65
Aggrecan; Table 16
  Mean ΔCp: 7.28
  ΔCp: 9.06 and 6.83 and 5.95
  Cp Agg: 24.7 and 23.56 and 22.36
  Mean regulation: 10.65
Aggrecan; day 22
  increase in transcription of aggrecan: 20 fold
Collagen 2A1; Table 12
  Cp Coll: 27.41 and 25.44 and 22.94
  Mean regulation: 136.83
  Mean ΔCp: 7.223
Collagen 2A1; Table 16
  Cp Coll: 27.41 and 25.44 and 22.94
  Mean regulation: 136.83
  Mean ΔCp: 7.223
Collagen 2A1; Day 7
  regulation, Collagen 2A1: 1.65 and −2.28 and −1.25
  Mean regulation, Collagen 2A1: −0.62
  ΔCp, Collagen 2A1: 6.01 and 7.92 and 7.05
  2^-ΔΔCp vs saline, Collagen 2A1: 1.651 and 0.4393 and 0.8029
  ΔΔCp vs saline, Collagen 2A1: −0.72 and 1.187 and 0.317
  Mean ΔCp, Collagen 2A1: 6.993
Collagen 2A1; Day 14
  regulation, Collagen 2A1: 1.48 and 2.56 and −1.02
  Mean regulation, Collagen 2A1: 1.01
  ΔCp, Collagen 2A1: 10.49 and 9.7 and 11.09
  2^-ΔΔCp vs saline, Collagen 2A1: 1.4811 and 2.5609 and 0.9772
  ΔΔCp vs saline, Collagen 2A1: −0.57 and −1.36 and 0.033
  Mean ΔCp, Collagen 2A1: 10.43
Collagen 2A1; day 22
  collagen transcription (in words): greatly enhanced
  increase in transcription of Collagen 2a1: 2000 fold
Collagen 2A1; day fourteen, compared with the control in a pellet
  collagen transcription (in words): still elevated
MMP13; Day 7, fold regulation vs saline, single replicate well
  regulation, MMP13: −1.29 and 1.03 and −1.76
MMP13; Day 7, fold regulation vs saline, triplicate wells
  Mean regulation, MMP13: −0.67
MMP13; Day 7, human bone marrow MSC, chondrogenic medium + TGF beta 3, vs Actin, single replicate well
  ΔCp, MMP13: 5 and 4.6 and 5.45
MMP13; [3]
  2^-ΔΔCp vs saline, MMP13: 0.7774 and 1.0257 and 0.5691
  ΔΔCp vs saline, MMP13: 0.363 and −0.04 and 0.813
MMP13; Day 7, vs Actin, triplicate wells
  Mean ΔCp, MMP13: 5.017
MMP13; MMP13, Day 22, Table 12
  Cp, MMP13: 20.34 and 21.41 and 21.25
  Mean regulation: 0.36
MMP13; MMP13, Day 22, Table 16
  2^-ΔΔCp vs saline: 1.1277 and 1.0163 and 0.9352
  Cp, MMP13: 20.34 and 21.41 and 21.25
  Mean regulation: 0.36
MMP13; Day 22, Table 12
  Mean ΔCp: 2.96
  ΔCp: 2.82 and 2.97 and 3.09
MMP13; Day 22, Table 16
  Mean ΔCp: 2.96
  ΔCp: 2.82 and 2.97 and 3.09
